From patent US20260184693A1, “INHIBITORS OF SOLUTE CARRIER FAMILY 6A MEMBER 19 (SLC6A19) AND METHODS OF USE THEREOF” (Maze Therapeutics, Inc., priority 2022, published 2026)

Molecular target: T1, human SLC6A19 (Homo sapiens, UniProt Q695T7)
T1 construct: expressed in transfected cells
T1 sequence (Q695T7 1-634): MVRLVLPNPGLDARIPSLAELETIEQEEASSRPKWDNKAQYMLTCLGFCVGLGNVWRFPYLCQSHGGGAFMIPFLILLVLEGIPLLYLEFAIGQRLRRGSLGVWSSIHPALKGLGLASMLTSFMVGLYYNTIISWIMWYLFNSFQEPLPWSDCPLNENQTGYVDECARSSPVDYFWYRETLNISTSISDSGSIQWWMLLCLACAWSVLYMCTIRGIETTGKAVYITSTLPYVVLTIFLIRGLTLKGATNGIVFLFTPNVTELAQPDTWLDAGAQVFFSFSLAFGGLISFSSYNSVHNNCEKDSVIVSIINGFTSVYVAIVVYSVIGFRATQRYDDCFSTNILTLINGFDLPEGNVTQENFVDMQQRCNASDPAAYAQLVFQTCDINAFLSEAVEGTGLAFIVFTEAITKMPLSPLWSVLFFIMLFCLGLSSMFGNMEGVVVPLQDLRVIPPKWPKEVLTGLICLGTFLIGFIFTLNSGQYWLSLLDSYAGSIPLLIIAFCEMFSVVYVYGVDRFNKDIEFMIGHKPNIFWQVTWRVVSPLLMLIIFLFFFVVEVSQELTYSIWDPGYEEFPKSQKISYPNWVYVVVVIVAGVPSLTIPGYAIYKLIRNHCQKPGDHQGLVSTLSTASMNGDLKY
T1 sequence (Q9HBJ8 15-222 partner): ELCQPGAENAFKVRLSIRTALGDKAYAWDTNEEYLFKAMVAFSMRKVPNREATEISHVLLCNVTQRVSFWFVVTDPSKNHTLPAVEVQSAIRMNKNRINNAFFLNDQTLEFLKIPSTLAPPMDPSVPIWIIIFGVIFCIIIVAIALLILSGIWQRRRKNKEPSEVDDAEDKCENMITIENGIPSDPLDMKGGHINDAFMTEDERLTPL
Assay: Example B2: 13C6,15N-isoleucine uptake, RapidFire mass spectrometry, in CHO cells with doxycycline-inducible expression of human SLC6A19 and TMEM27
Format: cell-based
Settings: read-out: SLC6A19_RapidFire Uptake Assay IC50
Procedure, shortened: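 CHO cells were induced with doxycycline to express human SLC6A19 with TMEM27, then pre-incubated 20 min at 37 °C with compounds (2-fold, 10-point, duplicate). Uptake of 13C6,15N-isoleucine (2 mM solution added) over a further 20 min was measured by RapidFire mass spectrometry, using 13C-leucine as internal standard.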

| SMILES | IC50 |
| --- | --- |
| Cc1noc(CC(=O)N2CCC[C@@H](N(C)C(=O)NCc3cc4cc(Cl)ccc4[nH]3)C2)n1 [Compound 65, (R)-3-((5-chloro-1H-indol-2-yl)methyl)-1-methyl-1-(1-(2-(3-methyl-1,2,4-oxadiazol-5-yl)acetyl)piperidin-3-yl)urea] | 973 nM |
| CN(C(=O)NCc1cc2cc(Cl)ccc2[nH]1)[C@@H]1CCCN(C(=O)Cn2cccnc2=O)C1 [Compound 66, (R)-3-((5-chloro-1H-indol-2-yl)methyl)-1-methyl-1-(1-(2-(2-oxopyrimidin-1(2H)-yl)acetyl)piperidin-3-yl)urea] | 4240 nM |
| CN(C(=O)NCc1cc2cc(Cl)ccc2[nH]1)[C@@H]1CCCN(C(=O)Cc2cccnc2)C1 [Compound 67, (R)-3-((5-chloro-1H-indol-2-yl)methyl)-1-methyl-1-(1-(2-(pyridin-3-yl)acetyl)piperidin-3-yl)urea] | 887 nM |
| CN(C(=O)NCc1cc2cc(Cl)ccc2[nH]1)[C@@H]1CCCN(C(=O)Cc2ccccn2)C1 [Compound 68, (R)-3-((5-chloro-1H-indol-2-yl)methyl)-1-methyl-1-(1-(2-(pyridin-2-yl)acetyl)piperidin-3-yl)urea] | 417 nM |
| CN(C(=O)NCc1cc2cc(Cl)ccc2[nH]1)[C@@H]1CCCN(C(=O)c2onc3ccccc23)C1 [Compound 69, (R)-1-(1-(benzo[c]isoxazole-3-carbonyl)piperidin-3-yl)-3-((5-chloro-1H-indol-2-yl)methyl)-1-methylurea] | > 2810 nM |
| CC(C(=O)N1CCC[C@@H](N(C)C(=O)NCc2cc3cc(Cl)ccc3[nH]2)C1)n1cncn1 (stereo partly drawn) [Compound 70, 1-((3R)-1-(2-(1H-1,2,4-triazol-1-yl)propanoyl)piperidin-3-yl)-3-((5-chloro-1H-indol-2-yl)methyl)-1-methylurea] | 3060 nM |
| CCS(=O)(=O)CC(=O)N1CCC[C@@H](N(C)C(=O)NCc2cc3cc(Cl)ccc3[nH]2)C1 [Compound 71, (R)-3-((5-chloro-1H-indol-2-yl)methyl)-1-(1-(2-(ethylsulfonyl)acetyl)piperidin-3-yl)-1-methylurea] | 6390 nM |
| CN(C(=O)NCc1cc2cc(Cl)ccc2[nH]1)[C@@H]1CCCN(C(=O)c2ccc3ocnc3c2)C1 [Compound 72, (R)-1-(1-(benzo[d]oxazole-5-carbonyl)piperidin-3-yl)-3-((5-chloro-1H-indol-2-yl)methyl)-1-methylurea] | 1370 nM |
| CN(C(=O)NCc1cc2cc(Cl)ccc2[nH]1)[C@@H]1CCCN(C(=O)CCNC(N)=O)C1 [Compound 73, (R)-3-((5-chloro-1H-indol-2-yl)methyl)-1-methyl-1-(1-(3-ureidopropanoyl)piperidin-3-yl)urea] | 897 nM |
| CN(C(=O)NCc1cc2cc(Cl)ccc2[nH]1)[C@@H]1CCCN(C(=O)c2cccn3cnnc23)C1 [Compound 74, (R)-1-(1-([1,2,4]triazolo[4,3-a]pyridine-8-carbonyl)piperidin-3-yl)-3-((5-chloro-1H-indol-2-yl)methyl)-1-methylurea] | 2540 nM |
| CN(C(=O)NCc1cc2cc(Cl)ccc2[nH]1)[C@@H]1CCCN(C(=O)C2CCC(=O)C2)C1 (stereo partly drawn) [Compound 75, 3-((5-chloro-1H-indol-2-yl)methyl)-1-methyl-1-((3R)-1-(3-oxocyclopentane-1-carbonyl)piperidin-3-yl)urea] | 1750 nM |
| CN(C(=O)NCc1cc2cc(Cl)ccc2[nH]1)[C@@H]1CCCN(C(=O)c2ccn3ccnc3c2)C1 [Compound 76, (R)-3-((5-chloro-1H-indol-2-yl)methyl)-1-(1-(imidazo[1,2-a]pyridine-7-carbonyl)piperidin-3-yl)-1-methylurea] | 1000 nM |
| Cc1cc(C(=O)N2CCC[C@@H](N(C)C(=O)NCc3cc4cc(Cl)ccc4[nH]3)C2)n(C)n1 [Compound 77, (R)-3-((5-chloro-1H-indol-2-yl)methyl)-1-(1-(1,3-dimethyl-1H-pyrazole-5-carbonyl)piperidin-3-yl)-1-methylurea] | 6570 nM |
| COc1ccc(C(=O)N2CCC[C@@H](N(C)C(=O)NCc3cc4cc(Cl)ccc4[nH]3)C2)nc1 [Compound 78, (R)-3-((5-chloro-1H-indol-2-yl)methyl)-1-(1-(5-methoxypicolinoyl)piperidin-3-yl)-1-methylurea] | 1760 nM |
| COC(C)(C)C(=O)N1CCC[C@@H](N(C)C(=O)NCc2cc3cc(Cl)ccc3[nH]2)C1 [Compound 79, (R)-3-((5-chloro-1H-indol-2-yl)methyl)-1-(1-(2-methoxy-2-methylpropanoyl)piperidin-3-yl)-1-methylurea] | 5630 nM |
| CN(C(=O)NCc1cc2cc(Cl)ccc2[nH]1)[C@@H]1CCCN(C(=O)CC(C)(C)O)C1 [Compound 80, (R)-3-((5-chloro-1H-indol-2-yl)methyl)-1-(1-(3-hydroxy-3-methylbutanoyl)piperidin-3-yl)-1-methylurea] | 5650 nM |
| CN(C(=O)NCc1cc2cc(Cl)ccc2[nH]1)[C@@H]1CCCN(C(=O)Cn2ccccc2=O)C1 [Compound 81, (R)-3-((5-chloro-1H-indol-2-yl)methyl)-1-methyl-1-(1-(2-(2-oxopyridin-1(2H)-yl)acetyl)piperidin-3-yl)urea] | 1410 nM |
| COCC(C)C(=O)N1CCC[C@@H](N(C)C(=O)NCc2cc3cc(Cl)ccc3[nH]2)C1 (stereo partly drawn) [Compound 82, 3-((5-chloro-1H-indol-2-yl)methyl)-1-((3R)-1-(3-methoxy-2-methylpropanoyl)piperidin-3-yl)-1-methylurea] | 3810 nM |
| CN(C(=O)NCc1cc2cc(Cl)ccc2[nH]1)[C@@H]1CCCN(C(=O)COc2ccc(=O)[nH]n2)C1 [Compound 83, (R)-3-((5-chloro-1H-indol-2-yl)methyl)-1-methyl-1-(1-(2-((6-oxo-1,6-dihydropyridazin-3-yl)oxy)acetyl)piperidin-3-yl)urea] | 4790 nM |
| CN(C(=O)NCc1cc2cc(Cl)ccc2[nH]1)[C@@H]1CCCN(C(=O)C2CCCC2)C1 [Compound 84, (R)-3-((5-chloro-1H-indol-2-yl)methyl)-1-(1-(cyclopentanecarbonyl)piperidin-3-yl)-1-methylurea] | 176 nM |
| Cc1ccn(CC(=O)N2CCC[C@@H](N(C)C(=O)NCc3cc4cc(Cl)ccc4[nH]3)C2)n1 [Compound 85, (R)-3-((5-chloro-1H-indol-2-yl)methyl)-1-methyl-1-(1-(2-(3-methyl-1H-pyrazol-1-yl)acetyl)piperidin-3-yl)urea] | 369 nM |
| CN(C(=O)NCc1cc2cc(Cl)ccc2[nH]1)[C@@H]1CCCN(C(=O)Cc2cnn(C)c2)C1 [Compound 86, (R)-3-((5-chloro-1H-indol-2-yl)methyl)-1-methyl-1-(1-(2-(1-methyl-1H-pyrazol-4-yl)acetyl)piperidin-3-yl)urea] | 559 nM |
| COc1ncc(C(=O)N2CCC[C@@H](N(C)C(=O)NCc3cc4cc(Cl)ccc4[nH]3)C2)cc1F [Compound 87, (R)-3-((5-chloro-1H-indol-2-yl)methyl)-1-(1-(5-fluoro-6-methoxynicotinoyl)piperidin-3-yl)-1-methylurea] | 1670 nM |
| CC(=O)NC(C)C(=O)N1CCC[C@@H](N(C)C(=O)NCc2cc3cc(Cl)ccc3[nH]2)C1 (stereo partly drawn) [Compound 88, N-(1-((R)-3-(3-((5-chloro-1H-indol-2-yl)methyl)-1-methylureido)piperidin-1-yl)-1-oxopropan-2-yl)acetamide] | 4080 nM |
| CC(=O)NCCC(=O)N1CCC[C@@H](N(C)C(=O)NCc2cc3cc(Cl)ccc3[nH]2)C1 [Compound 89, (R)-N-(3-(3-(3-((5-chloro-1H-indol-2-yl)methyl)-1-methylureido)piperidin-1-yl)-3-oxopropyl)acetamide] | 1080 nM |
| COCc1oncc1C(=O)N1CCC[C@@H](N(C)C(=O)NCc2cc3cc(Cl)ccc3[nH]2)C1 [Compound 90, (R)-3-((5-chloro-1H-indol-2-yl)methyl)-1-(1-(5-(methoxymethyl)isoxazole-4-carbonyl)piperidin-3-yl)-1-methylurea] | 13500 nM |
| CN(C(=O)NCc1cc2cc(Cl)ccc2[nH]1)[C@@H]1CCCN(C(=O)CCn2cccn2)C1 [Compound 91, (R)-1-(1-(3-(1H-pyrazol-1-yl)propanoyl)piperidin-3-yl)-3-((5-chloro-1H-indol-2-yl)methyl)-1-methylurea] | 1810 nM |
| COCC1(C(=O)N2CCC[C@@H](N(C)C(=O)NCc3cc4cc(Cl)ccc4[nH]3)C2)CC1 [Compound 92, (R)-3-((5-chloro-1H-indol-2-yl)methyl)-1-(1-(1-(methoxymethyl)cyclopropane-1-carbonyl)piperidin-3-yl)-1-methylurea] | 8990 nM |
| CN(C(=O)NCc1cc2cc(Cl)ccc2[nH]1)[C@@H]1CCCN(C(=O)C2CCCCO2)C1 (stereo partly drawn) [Compound 93, 3-((5-chloro-1H-indol-2-yl)methyl)-1-methyl-1-((3R)-1-(tetrahydro-2H-pyran-2-carbonyl)piperidin-3-yl)urea] | 1630 nM |
